Results from patent publication US20120263780A1, “Carbohydrate Entrapped Active Agent Delivery Composition and Articles Using the Same” (priority 2009, published 2012).

What was measured:
[1] = tested on: Staphylococcus aureus (ATCC #6538); test: Zone of inhibition testing on agar plates; type: cell-based; conditions: for Observed Zone of Inhibition (mm): 7 day old sample; for Zone (mm): thymol powder in well
Protocol: The samples prepared above were cut into 10 mm-diameter circular sections of thymol-treated and untreated material. These samples were placed on a freshly streaked sample of staphylococcus aureus on trypticase soy agar. After 24 hours incubation at 37° C., plates were measured for zones of inhibitions surrounding the samples. To calculate the zone of inhibition, the test material was brought into contact with a known population of test microorganisms on an agar plate for a specified period of time. At the end of the contact time the area of inhibited colony formation around the test material was measured. The size of this area of no growth was a measure of leaching of the antimicrobial agent from the test material. In this procedure, the test material was cut into small discs and placed on an agar plate evenly spread with a test microorganism. The plates were incubated for 24 hours at ideal growth conditions. Following incubation, the diameter of the circle of no growth around the disc was measured. The zone of inhibition was reported as the difference between the sample disc diameter and the average of the measured no growth zone diameters. Materials and Reagents • Microorganisms: frozen stock of Staphylococcus aureus (ATCC 6538). • Mueller-Hinton agar (MHA) plates or equivalent plated media. Prepare following manufacturer's directions. Store at 4±2° C. Alternatively pre-made plates can be utilized. • Mueller-Hinton broth (MHB) or equivalent liquid media. Prepare following manufacturers directions. Store at 4±2° C. Alternately pre-made media can be utilized. • Sterile cotton swabs or equivalent. • Sterile forceps. • Positive control disc: Vanocymicin susceptibility discs (6 mm), 30 μg/disc (BD and Company; Sparks, Md.). • Test material, cut into 8 mm discs. • Calipers or other measuring device. • Other ancillary lab supplies. 2. Staphylococcus aureus (ATCC 6538) is inoculated from an overnight plate or MHB into 5 ml of sterile MHB in a 35° C. incubator for 18-24 hrs. 3. The overnight culture is then adjusted using MHB to the 0.5 McFarland barium sulphate standards (1×10^8 CFU/ml) or approximately 0.15 OD with a 0.2 cm light path at 660 nanometer. 1. Pre-warm, to room temperature, MHA plates. […] 3. Moisten a sterile applicator swab in the standardized cell suspension and express any excess moisture by rotating the swab against the glass above the liquid in the tube. Inoculate the entire surface of each plate, inoculating the surface completely in three different directions to ensure uniform growth. 5. Store the inoculated plates at room temperature for 10-15 minutes to allow the medium to absorb the moisture from the inoculum. 6. Apply discs of test material to the surface of the inoculated medium with a sterile forceps and tap them to ensure that they are in complete contact with the agar surface. A positive control (vancomycin disc) and negative control (uncoated disc) should be used on each plate. 7. Invert the inoculated plates and incubate them at 35° C. for 18-24 hours. 8. Examine the plates from the back, viewed against a black background and illuminated with reflected light. With calipers, measure the diameter of each zone of inhibition to the nearest whole millimeter. Zone of Inhibition=diameter of no growth area−diameter of disc First, exemplary Delivery Compositions 1 and 2 were created. A sucrose blend was melted on a stove top to prepare a carbohydrate matrix. An active agent was added to the molten sucrose to provide a 2% loading of thymol. After the mixture was melted, analysis was performed to determine the amount of thymol retained within the sucrose. Delivery Composition 1 contained approximately 0.72 wt. % thymol and Delivery Composition 2 contained approximately 0.74 wt. % thymol. Both Delivery Compositions 1 and 2 were placed in a well in a media with a plate inoculated with Staphylococcus aureus (ATCC #6538) and a zone of inhibition for each sample was measured as described above. […]

[2] = tested on: Staphylococcus aureus (ATCC #6538); test: Shake flask test ASTM E2149-01, anti-bacterial activity of thymol-treated coform substrates; type: cell-based; conditions: 7 day old sample, 1 hour exposure
Protocol: Five sections of coform material approximately 17 cm by 17 cm were prepared and weighed to determine the amount of thymol needed for loading of thymol at a weight percent of 0.3%, 0.6% and 1.0%. The determined quantity of thymol to provide thymol as a percentage was placed in an excess (39.0 grams) of ethanol to be dissolved. The coform substrates were placed into a plastic bag and the ethanol/thymol mixture was added. Using a cylindrical glass jar rolled on the outside of the sealed plastic bag, the sheets were rolled to evenly express the liquid throughout the coform squares. The coform was then removed from the bag and placed in a fume hood to allow the ethanol to evaporate off. The remaining dry sheets containing thymol were removed from the hood after one hour and placed in a dry plastic bag. Samples were aged 7 days and tested for anti-bacterial activity. To determine the anti-bacterial activity of the samples after 7 days, the shake flask test of ASTM […]-01 “Standard Test Method for Determining the Antimicrobial Activity of Immobilized Antimicrobial Agents Under Dynamic Contact Conditions” was used. Approximately 1 gram samples of thymol-treated and untreated coform substrates were placed in individual capped flasks containing approximately 10^5 CFU of a Staphylococcus aureus (ATCC #6538) in phosphate buffered saline. Flasks were shaken at maximum speed on a wrist-action shaker for 1 hour. […] The active agent thymol has volatilized off of the sample within the 7 day time period.

[3] = 0.3% thymol add-on to coform substrate
[4] = 0.6% thymol add-on to coform substrate
[5] = 1% thymol add-on to coform substrate

## Cc1ccc(C(C)C)c(O)c1 [Thymol, thymol]
[1]; [3]
  Observed Zone of Inhibition (mm): 0 mm
[1]; [4]
  Observed Zone of Inhibition (mm): 0 mm
[1]; [5]
  Observed Zone of Inhibition (mm): 0 mm
[1]; neat powder, various amounts, after 1 day
  zone of inhibition: 10-15 mm
[1]; weight 0.0018 grams
  Zone (mm): 10 mm
[1]; weight 0.0045 grams
  Zone (mm): 12 mm
[1]; weight 0.0353 grams
  Zone (mm): 13 mm
[1]; weight 0.0789 grams
  Zone (mm): 12 mm
[1]; weight 0.1609 grams
  Zone (mm): 15 mm
[2]; [3]
  Log10 Reduction of Bacteria: No Reduction
[2]; [4]
  Log10 Reduction of Bacteria: No Reduction
[2]; [5]
  Log10 Reduction of Bacteria: No Reduction
